pEC50: −log10 of the molar value.
How the values were obtained:
[1] = test system: Human immunodeficiency virus 1; experiment: Antiviral activity against HIV-1 NLRep-Rluc infected in human MT2 cells assessed as inhibition of viral growth incubated for 96 hrs by renilla luciferase assay; type: functional, organism-based; conditions: mt2
[2] = test system: MT2; experiment: (§1) Cytotoxicity against human MT2 cells assessed as reduction in cell viability incubated for 4 days by XTT assay; type: toxicity, cell-based; conditions: mt2, 96 h, 96 h, time 4 day
[3] = Selectivity index, ratio of CC50 for cytotoxicity against human MT2 cells to EC50 for antiviral activity against HIV-1 NLRep-Rluc infected in human MT2 cells; type: toxicity, cell-based; conditions: read-out: Ratio CC50/EC50
[4] = Clearance in Sprague-Dawley rat at 1 mg/kg, iv and measured upto 96 hrs by LC-MS/MS analysis; type: ADME, organism-based; conditions: in vivo
[5] = as §1; type: toxicity, cell-based; conditions: MT2 cells, time 4 day

In the case of `COc1ccc2c(=O)n(-c3ccc(Cl)c4c(NS(C)(=O)=O)nn(C)c34)c([C@H](Cc3cc(F)cc(F)c3)NC(=O)Cn3nc(C(F)F)c4c3C(F)(F)[C@@H]3C[C@H]43)nc2c1` (stereo in doubt; 12b), the pEC50 [1] was 10.24, the CC50 [2] was greater than 20000 nM and the selectivity ratio [3] was greater than 1000. The clearance [4] was 8.3 mL/min/kg.
In the case of `COc1ccc2nc([C@H](Cc3cc(F)cc(F)c3)NC(=O)Cn3nc(C(F)F)c4c3C(F)(F)[C@@H]3C[C@H]43)n(-c3ccc(Cl)c4c(NS(C)(=O)=O)nn(C)c34)c(=O)c2c1` (stereo in doubt; 12c), the pEC50 [1] was 9.82, the CC50 at 96 h [5] was greater than 20000 nM and the selectivity ratio [3] was greater than 1000.
Work on `Cn1nc(NS(C)(=O)=O)c2c(Cl)ccc(-n3c([C@H](Cc4cc(F)cc(F)c4)NC(=O)Cn4nc(C(F)F)c5c4C(F)(F)[C@@H]4C[C@H]54)nc4ccccc4c3=O)c21` (stereo in doubt; 12a) yielded a pEC50 [1] of 10.31, a CC50 [2] greater than 20000 nM and a selectivity ratio [3] greater than 1000. The clearance [4] was 30 mL/min/kg.

Source: ChEMBL document CHEMBL5316333, “Potent Long-Acting Inhibitors Targeting the HIV-1 Capsid Based on a Versatile Quinazolin-4-one Scaffold” (J Med Chem, 2023)
